# Calls of active or inactive are those of the source. The rule behind the calls is not given here.
# What was measured:
# [1] = molecular target: Serine/threonine-protein kinase mTOR (Rattus norvegicus, UniProt P42346); test: Inhibition of rat brain mTOR assessed as p70S6K-GST protein phosphorylation after 30 mins by ELISA
# [2] = Inhibition of PI3K assessed as PIP3 level after 20 mins by HTRF assay
# [3] = Selectivity ratio of IC50 for PI3K to IC50 for rat brain mTOR
# [4] = tested on: LNCaP; test: Antiproliferative activity against human LNCAP cells after 3 days by MTS assay; type: functional, cell-based; details: 72 h
# [5] = tested on: U-87MG ATCC; test: Antitumor activity against human U87MG cells xenografted in nude mouse assessed as reduction in tumor volume at 5 to 15 mg/kg, po QD for 5 days measured up to 10 days; type: functional, organism-based
# [6] = Antitumor activity against human U87MG cells xenografted in nude mouse assessed as reduction in tumor volume at 10 mg/kg, po QD for 5 days measured after 8 days relative to control; type: functional, U-87MG ATCC; design: scale not given: the % may be the effect or the level left
# [7] = tested on: U-87MG ATCC; test: Antitumor activity against human U87MG cells xenografted in nude mouse assessed as reduction in tumor volume at 12.5 to 25 mg/kg, po QD for 5 days measured after 9 days; type: functional, organism-based
# [8] = Antitumor activity against human U87MG cells xenografted in nude mouse assessed as reduction in tumor volume at 5 mg/kg, iv QD for 5 days measured after 9 days relative to control; type: functional, U-87MG ATCC; design: scale not given: the % may be the effect or the level left
# [9] = tested on: MDA361; test: Inhibition of PI3K in human MDA361 cells assessed as suppression of P-AKT T308 level at 0.0125 to 10 uM by immunoblotting; type: cell-based
# [10] = tested on: Mus musculus; test: Inhibition of mTOR in human MDA361 cells xenografted in nude mouse assessed as suppression of TORC1 level at 10 mg/kg, iv after 8 hrs by immunoblotting; type: functional, organism-based; design: dose 10 mg/kg
# [11] = tested on: Mus musculus; test: Inhibition of mTOR in human MDA361 cells xenografted in nude mouse assessed as suppression of TORC2 level at 10 mg/kg, iv after 8 hrs by immunoblotting; type: functional, organism-based; design: dose 10 mg/kg
# [12] = tested on: Mus musculus; test: Inhibition of PI3K signalling in human MDA361 cells xenografted in nude mouse assessed as suppression of PI3K/PDK1 level at 10 mg/kg, iv after 8 hrs by immunoblotting; type: functional, organism-based; design: dose 10 mg/kg
# [13] = tested on: Mus musculus; test: Inhibition of mTOR in human MDA361 cells xenografted in nude mouse assessed as suppression of TORC1 level at 25 mg/kg, iv after 8 hrs by immunoblotting; type: functional, organism-based; design: dose 25 mg/kg
# [14] = tested on: Mus musculus; test: Inhibition of mTOR in human MDA361 cells xenografted in nude mouse assessed as suppression of TORC2 level at 25 mg/kg, iv after 8 hrs by immunoblotting; type: functional, organism-based; design: dose 25 mg/kg
# [15] = tested on: Mus musculus; test: Inhibition of PI3K signalling in human MDA361 cells xenografted in nude mouse assessed as suppression of PI3K/PDK1 level at 25 mg/kg, iv after 8 hrs by immunoblotting; type: functional, organism-based; design: dose 25 mg/kg
Structure (SMILES),IC50 [1] [nM],IC50 [2] [nM],Ratio IC50 [3],IC50 [4] [nM],other results
CN1CCN(c2ccc(NC(=O)Nc3ccc(-c4nc(N5CC6CCC(C5)O6)nc(N5C6CCC5COC6)n4)cc3)cc2)CC1,2,150,75,< 0.8,
FC(F)c1nc2ccccc2n1-c1nc(N2CCOCC2)nc(N2CCOCC2)n1 [ZSTK-474],45,,,210,
FC(F)c1nc2ccccc2n1-c1nc(N2CCOCC2)nc(N2CC3CCC(C2)O3)n1,60,24,0.41,180,
CN1CCN(c2ccc(NC(=O)Nc3ccc(-c4nc(N5C[C@H]6C[C@@H]5CO6)nc(N5C[C@H]6C[C@@H]5CO6)n4)cc3)cc2)CC1,130,1820,14,550,
CN1CCN(c2ccc(NC(=O)Nc3ccc(-c4nc(N5C6CCC5COC6)nc(N5C6CCC5COC6)n4)cc3)cc2)CC1,,,,,Activity [7]: Active; Activity [8]: 31%; inhibition [9]: Active; inhibition [10]: Active; inhibition [11]: Active; inhibition [12]: inactive; inhibition [13]: Active; inhibition [14]: Active; inhibition [15]: Active

# Further lines, with some results ahead:
IC50 [1] [nM],IC50 [2] [nM],Ratio IC50 [3],IC50 [4] [nM],Structure (SMILES),other results
0.5,142,282,45,O=C(Nc1ccncc1)Nc1ccc(-c2nc(N3CC4CCC(C3)O4)nc(N3CC4CCC(C3)O4)n2)cc1,
1.7,87,51,2.3,CN1CCN(c2ccc(NC(=O)Nc3ccc(-c4nc(N5CC6CCC(C5)O6)nc(N5CC6CCC(C5)O6)n4)cc3)cc2)CC1,Activity [5]: Active; Activity [6]: 44%
44,124,2.8,680,FC(F)c1nc2ccccc2n1-c1nc(N2CC3CCC(C2)O3)nc(N2CC3CCC(C2)O3)n1,
2.8,2690,961,180,CCNC(=O)Nc1ccc(-c2nc(N3CC4CCC(C3)O4)nc(N3CC4CCC(C3)O4)n2)cc1,
35,3440,98,,CN1CCN(c2ccc(NC(=O)Nc3ccc(-c4nc(N5C[C@@H]6C[C@H]5CO6)nc(N5C[C@@H]6C[C@H]5CO6)n4)cc3)cc2)CC1,
2.5,680,272,190,CNC(=O)Nc1ccc(-c2nc(N3CC4CCC(C3)O4)nc(N3CC4CCC(C3)O4)n2)cc1,
2.6,2120,802,90,O=C(Nc1ccc(-c2nc(N3CC4CCC(C3)O4)nc(N3CC4CCC(C3)O4)n2)cc1)NC1CC1,
